Measured values from US8383375B2 (Posco, priority 2004, dated 2013).

T1: Ss gluconate dehydratase (Saccharolobus solfataricus, UniProt Q97U27)
T1 sequence (Q97U27 1-395): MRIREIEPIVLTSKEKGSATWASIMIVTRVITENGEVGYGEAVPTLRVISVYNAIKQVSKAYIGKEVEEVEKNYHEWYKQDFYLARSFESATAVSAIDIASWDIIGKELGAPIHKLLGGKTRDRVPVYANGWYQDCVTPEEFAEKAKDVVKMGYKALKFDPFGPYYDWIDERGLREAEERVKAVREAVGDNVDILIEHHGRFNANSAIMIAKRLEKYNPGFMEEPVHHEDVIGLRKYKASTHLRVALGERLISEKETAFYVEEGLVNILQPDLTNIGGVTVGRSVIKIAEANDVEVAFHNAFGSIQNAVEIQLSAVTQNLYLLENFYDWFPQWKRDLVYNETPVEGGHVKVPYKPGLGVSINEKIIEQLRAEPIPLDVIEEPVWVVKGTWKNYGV


Assays:
Ss gluconate dehydratase [1] = target: T1, Ss gluconate dehydratase; assay: Substrate specificities of Ss gluconate dehydratase (semicarbazide method); format: biochemical, Sulfolobus solfataricus; design: made in house; host or cells: Sulfolobus solfataricus cells (native source, not recombinant); conditions: for Relative activity (%): relative to D-gluconate; for Relative activity (%) / Reaction on substrate: 10 mM aldonic acid, 1 mM CoCl2, 50 mM Tri-HCl buffer pH 7.0, 30 min, 78 C
Protocol: (§1) The semicarbazide method was performed as follows: an enzyme reaction of a total volume a 400 μl was incubated at 78° C. in 50 mM Tris-HCl buffer, pH 7.0, with 10 mM gluconate and an enzyme solution. After 30 min, the enzyme reaction was stopped by the addition of 100 μl 2.0 M HCl. To this solution, 300 μl of semicarbazide solution (1.0% (w/v) semicarbazide hydrochloride and 1.5% (w/v) sodium acetate dissolved in distilled water) was added and incubated at 30° C. for 15 min. The final reaction mixture was diluted with 500 μl distilled water and then measured at 250 nm. The absorbance coefficient of the semicarbazone formation toward 2-keto-3-deoxy gluconate (KDG) was taken to be 0.571×10^3 M^−1 cm^−1.
(§2) For analysis of substrate specificities of gluconate dehydrates, a 10 mM solution of each aldonic acid containing carbon chains ranging from C4 to C7 were incubated together with 40 μg/mL of purified protein. […] All experiments were performed in three plicate.

Ss gluconate dehydratase [2] = target: T1, Ss gluconate dehydratase
Protocol: as §1, §2
Biochemical and kinetic parameters for the enzyme were determined using the assay method described above under standard conditions.
Values for Vmax and Km were determined from Lineweaver bulk plots. The rate dependence on substrate concentration followed Michaelis-Meten kinetics.

[3] = Temperature profile of enzyme activity; format: biochemical
Protocol: The temperature profile for enzyme activity was determined between 40 and 100° C.

[4] = format: physicochemical
Protocol: Enzyme thermostability was determined at 80, 90, and 100° C. by incubating enzyme solution (50 μg/ml) in 50 mM Tri-HCl (pH 7.2). At an appropriate time, samples were taken and completely cooled on ice and then measured for residual activities under standard conditions. The thermostability of purified gluconate dehydrates was measured at 80, 90, and 100° C.

| Molecule | Relative activity (%) (Ss gluconate dehydratase [1]) | Reaction on substrate (Ss gluconate dehydratase [1]) | also measured |
| --- | --- | --- | --- |
| O=C(O)[C@H](O)[C@@H](O)[C@@H](O)[C@H](O)CO [D-Galactonate] | 2.8 | – | – |
| O=C(O)[C@@H](O)[C@H](O)[C@H](O)CO [D-Arabonate] | 0.7 | – | – |
| OC[C@@H](O)[C@@H](O)[C@H](O)[C@@H](O)CO [D-glucitol] | – | No reaction on the following substrates: L-arabonate, D-xylonate, D-galacturonate, D-glucitol, D-mannonate, and D, L-glycerate. | – |
| O=C(O)[C@H](O)[C@@H](O)[C@H](O)[C@H](O)CO [D-Gluconate] | 100.0 | – | Km (Ss gluconate dehydratase [2]; D-gluconate 0.1 to 40 mM as substrate, Lineweaver-Burk plots): 16.7 mM; turnover number (kcat) (Ss gluconate dehydratase [2]; D-gluconate as substrate): 333 s⁻¹; Vm (Ss gluconate dehydratase [2]; D-gluconate as substrate, Lineweaver-Burk plots): 34.5 units/mg; conversion (Ss gluconate dehydratase [1]; 10 mM substrate, 40 μg/mL purified protein, standard condition): 100% |
| O=C(O)[C@H](O)[C@@H](O)[C@@H](O)CO [L-arabonate] | – | No reaction on the following substrates: L-arabonate, D-xylonate, D-galacturonate, D-glucitol, D-mannonate, and D, L-glycerate. | – |
| L-isovalerate [D, L-isovalerate] | 0.25 | – | – |
| O=C(O)[C@@H](O)[C@@H](O)[C@H](O)[C@H](O)CO [D-mannonate] | – | No reaction on the following substrates: L-arabonate, D-xylonate, D-galacturonate, D-glucitol, D-mannonate, and D, L-glycerate. | – |
| O=C(O)[C@H](O)[C@@H](O)[C@H](O)CO [D-xylonate] | – | No reaction on the following substrates: L-arabonate, D-xylonate, D-galacturonate, D-glucitol, D-mannonate, and D, L-glycerate. | – |
| O=C[C@H](O)[C@@H](O)[C@@H](O)[C@H](O)C(=O)O [D-galacturonate] | – | No reaction on the following substrates: L-arabonate, D-xylonate, D-galacturonate, D-glucitol, D-mannonate, and D, L-glycerate. | – |
| O=C(O)C(O)CO [D, L-glycerate] | – | No reaction on the following substrates: L-arabonate, D-xylonate, D-galacturonate, D-glucitol, D-mannonate, and D, L-glycerate. | – |
| D-Galactoheptonate | 1.6 | – | – |
| gluconate dehydratase: thermostable gluconate dehydratase purified from Sulfolobus solfataricus P2, SEQ ID NO:2, octamer (protein, listed as Sulfolobus solfataricus, octamer) MRIREIEPIVLTSKEKGSATWASIMIVTRVITENGEVGYGEAVPTLRVISVYNAIKQVSKAYIGKEVEEVEKNYHEWYKQDFYLARSFESATAVSAIDIASWDIIGKELGAPIHKLLGGKTRDRVPVYANGWYQDCVTPEEFAEKAKDVVKMGYKALKFDPFGPYYDWIDERGLREAEERVKAVREAVGDNVDILIEHHGRFNANSAIMIAKRLEKYNPGFMEEPVHHEDVIGLRKYKASTHLRVALGERLISEKETAFYVEEGLVNILQPDLTNIGGVTVGRSVIKIAEANDVEVAFHNAFGSIQNAVEIQLSAVTQNLYLLENFYDWFPQWKRDLVYNETPVEGGHVKVPYKPGLGVSINEKIIEQLRAEPIPLDVIEEPVWVVKGTWKNYGV | – | – | Enzyme activity below 60° C. [3]: not detectable; enzyme activity after incubation at 90° C. ([4]; 90° C., 2 hour incubation, 50 μg/ml enzyme in 50 mM Tri-HCl pH 7.2): below 50%; thermostability at 80° C. ([4]; pH 7.2): very stable over 2 hours |
